≈ marks a conversion by molar mass, not a printed value. Read-outs that look alike come from different tables or passages of the source.
What was measured:
Format in all cases: physicochemical
Hygroscopicity by DVS = conditions: for 1st Desorp. (%) / 1st Sorp. (%) / 2nd Desorp. (%) / 2nd Sorp. (%): DVS 25° C.
Protocol: • Method 1 (for I-1 Form A and I-3 Form A) • Instrument Intrinsic, Advantage or Adventure • Total gas flow 200 sccm • Oven temperature 25° C. • Solvent Water • Method Cycle: 40-0-95-0-40% RH • Stage Step: 10% • Equilibrium: 0.002 dm/dt (%/min) • Minimum dm/dt stability duration: 60 min • Maximum dm/dt stage time: 360 min • Method 2 (for I-4 Form A) • Instrument Intrinsic, Advantage or Adventure • Total gas flow 200 sccm • Oven temperature 25° C. • Solvent Water • Method Cycle: 40-95-0-95-40% RH • Stage Step: 10% • Equilibrium: 0.002 dm/dt (%/min) • Minimum dm/dt stability duration: 60 min • Maximum dm/dt stage time: 360 min
I-1 Form A is hygroscopic. It absorbs about 5.5% water by weight from 40% RH to 95% RH. […] It absorbs about 40% water by weight from 40% RH to 95% RH. Form changed after the DVS test. […] It starts to absorb water when RH>40% and potential hydrate form generates at high humidity based on DVS data. The sorption and desorption are reversible.
Water sorption and desorption behavior of I-1 Form A, I-3 Form A, and I-4 Form A was investigated by DVS at 25° C. with a cycle of 40-0-95-0-40% RH, dm/dt 0.002, min. equilibration time 60 min and max. equilibration time 360 min. XRPD was measured after the DVS test to determine form change.

[1] = Solubility study at 37° C. (buffer, water, bio-relevant media, MeOH/DCM)
Protocol: In addition, residual solids were checked by chiral HPLC to confirm whether racemization occurs.
Accurate 4 mg of I-1 Form A, 5.13 mg of I-3 Form A, 4.63 mg of I-4 Form A was weighed into a 8 mL glass vial, respectively. 2 mL of solubility medium was added. The salt amount used is equivalent to 4 mg anhydrous free form. Obtained suspensions/solutions were stirred at 37° C. at 400 rpm for 2 hours and 24 hours and then centrifuged at 37° C. at 14,000 rpm for 5 min. Supernatants were analyzed by UPLC and PH meter for solubility and pH value, respectively. Residual solids (wet cakes) were characterized by XRPD to determine physical form and then analyzed by HPLC for chiral purity.

[2] = Solution stability at 25° C.
Protocol: Solution stability of I-1 Form A and I-3 Form A was investigated in methanol and THF/ACN (2:1, v/v) at 25° C. Target concentration is 4 mg/mL.
Accurate 4 mg of I-1 Form A, 5.13 mg of I-3 Form A was weighed into a 8 mL glass vial, respectively. The salt amount used is equivalent to 4 mg anhydrous free form.

[3] = FaSSIF-V1, pH 6.5, 2 hours, listed as I-1 Form A
[4] = FaSSIF-V1, pH 6.5, 24 hours, listed as I-1 Form A
[5] = FeSSIF-V1, pH 5.0, 24 hours, listed as I-1 Form A
[6] = SGF, pH 2.0, 24 hours, listed as I-1 Form A
[7] = Water, 24 hours, listed as I-1 Form A
[8] = pH 2, HCl, 24 hours, listed as I-1 Form A
[9] = 25° C., MeOH, 0 h, listed as I-1 Form A
[10] = 25° C., MeOH, 6 h, listed as I-1 Form A
[11] = 25° C., MeOH, 24 h, listed as I-1 Form A
[12] = 25° C., THF/ACN(2:1, v/v), 0 h, listed as I-1 Form A
[13] = 25° C., THF/ACN(2:1, v/v), 6 h, listed as I-1 Form A
[14] = 25° C., THF/ACN(2:1, v/v), 24 h, listed as I-1 Form A

## N#Cc1c(-c2cc(NC(=O)c3cc(F)cc(C(F)(F)F)c3)c3c(c2)C(=O)N[C@H]3c2cc(F)ccc2Cl)ccc2ncnn12 [Compound I-1, (R)-N-(3-(2-chloro-5-fluorophenyl)-6-(5-cyano-[1,2,4]triazolo[1,5-a]pyridin-6-yl)-1-oxoisoindolin-4-yl)-3-fluoro-5-(trifluoromethyl)benzamide]
Hygroscopicity by DVS; 0% RH, listed as I-1 Form A
  1st Desorp. (%): 0.17%
  1st Sorp. (%): 0.17%
  2nd Desorp. (%): 0.001%
  2nd Sorp. (%): 0.001%
Hygroscopicity by DVS; 10% RH
  2nd Desorp. (%): 0.11%
Hygroscopicity by DVS; 10% RH, listed as I-1 Form A
  1st Desorp. (%): 0.25%
  1st Sorp. (%): 0.23%
  2nd Sorp. (%): 0.08%
Hygroscopicity by DVS; 20% RH, listed as I-1 Form A
  1st Desorp. (%): 0.33%
  1st Sorp. (%): 0.29%
  2nd Desorp. (%): 0.21%
  2nd Sorp. (%): 0.15%
Hygroscopicity by DVS; 30% RH, listed as I-1 Form A
  1st Desorp. (%): 0.42%
  1st Sorp. (%): 0.35%
  2nd Desorp. (%): 0.33%
  2nd Sorp. (%): 0.22%
Hygroscopicity by DVS; 40% RH, listed as I-1 Form A
  1st Desorp. (%): 0.52%
  1st Sorp. (%): 0.42%
  2nd Desorp. (%): 0.51%
  2nd Sorp. (%): 0.32%
Hygroscopicity by DVS; 50% RH, listed as I-1 Form A
  1st Sorp. (%): 0.54%
  2nd Desorp. (%): 0.92%
Hygroscopicity by DVS; 60% RH, listed as I-1 Form A
  1st Sorp. (%): 0.71%
  2nd Desorp. (%): 1.30%
Hygroscopicity by DVS; 70% RH, listed as I-1 Form A
  1st Sorp. (%): 1.02%
  2nd Desorp. (%): 1.62%
Hygroscopicity by DVS; 80% RH, listed as I-1 Form A
  1st Sorp. (%): 1.84%
  2nd Desorp. (%): 2.15%
Hygroscopicity by DVS; 90% RH, listed as I-1 Form A
  1st Sorp. (%): 3.24%
  2nd Desorp. (%): 3.56%
Hygroscopicity by DVS; 95% RH, listed as I-1 Form A
  1st Sorp. (%): 5.90%
  2nd Desorp. (%): 5.90%
Hygroscopicity by DVS; DVS at 25° C., listed as I-1 Form A
  hygroscopicity: hygroscopic
Hygroscopicity by DVS; from 40% RH to 95% RH, 25° C., listed as I-1 Form A
  water absorbed: about 5.5 % water by weight
Hygroscopicity by DVS; listed as I-1 Form A
  form after the DVS test (XRPD): no form and crystallinity change
[1]; [3]
  Chiral purity: purity: 97.7%)
  Solubility: 4.5 μg/mL(chiral
[1]; FaSSIF-V1, pH 6.5, 24 hours
  Chiral purity: (chiral purity: 97.7%)
[1]; [4]
  Chiral purity (solids): 98.9%)
  Solubility: 11.9 µg/mL (≈ 19.5 µM)
  pH of supernatant: 6.45
[1]; FeSSIF-V1, pH 5.0, 2 hours, listed as I-1 Form A
  Solubility: 20.5 µg/mL (≈ 33.7 µM)
[1]; [5]
  Chiral purity (solids): 85.7%)
  Solubility: 40.6 µg/mL (≈ 66.7 µM)
  pH of supernatant: 4.87
[1]; MeOH/DCM (1:2, v/v), 37 °C, organic solvent or mixture, thermodynamic from solid, MeOH/DCM (1:2, v/v), 2 hours
  solubility at 2 h: > 145000 µg/mL
[1]; MeOH/DCM (1:2, v/v), 37 °C, organic solvent or mixture, thermodynamic from solid, MeOH/DCM (1:2, v/v), 24 hours
  solubility at 24 h: > 145000 µg/mL
[1]; MeOH/DCM (1:2, v/v), 37 °C, organic solvent or mixture, thermodynamic from solid, read-out: solubility in MeOH/DCM (1:2, v/v)
  Solubility: > 145000 µg/mL
[1]; SGF, pH 2.0, 2 hours, listed as I-1 Form A
  Solubility: 11.2 µg/mL (≈ 18.4 µM)
[1]; [6]
  Chiral purity (solids): 98.9%)
  Solubility: 6.4 µg/mL (≈ 10.5 µM)
  pH of supernatant: 2.04
[1]; Water, 2 hours, LOQ: 0.5 μg/mL
  Solubility: <LOQ
[1]; Water, 24 hours, LOQ: 0.5 μg/mL
  Solubility: LOQ
[1]; [7]
  Chiral purity (solids): 98.9%)
  pH of supernatant: 7.50
[1]; pH 2, HCl, 2 hours, LOQ: 0.5 μg/mL
  Solubility: <LOQ
[1]; pH 2, HCl, 24 hours, LOQ: 0.5 μg/mL
  Solubility: LOQ
[1]; [8]
  Chiral purity (solids): 98.9%)
  pH of supernatant: 2.03
[1]; pH 2.0 HCl buffer solution, 37 °C, pH 2, aqueous buffer, thermodynamic from solid, solubility in pH 2 HCl buffer solution, 2 h and 24 h, LOQ=0.5 μg/mL
  Solubility: < 0.5 µg/mL
[1]; water, 37 °C, water, thermodynamic from solid, 2 h and 24 h, LOQ=0.5 μg/mL, read-out: solubility in pure water
  Solubility: < 0.5 µg/mL
[2]; [9]
  Chemical purity: 98.9%
  Chiral purity: 98.9%
[2]; [10]
  Chemical purity: 99.0%
  Chiral purity: 98.9%
[2]; [11]
  Chemical purity: 99.1%
  Chiral purity: 98.9%
[2]; [12]
  Chemical purity: 98.6%
  Chiral purity: 98.9%
[2]; [13]
  Chemical purity: 98.7%
  Chiral purity: 98.9%
[2]; [14]
  Chemical purity: 99.0%
  Chiral purity: 98.9%
[2]; before dissolution, listed as I-1 Form A
  Initial chiral purity: Initial chiral purity: 99.0%
[2]; methanol and THF/ACN (2:1, v/v), 25° C., 4 mg/mL
  racemization in solution: no racemization
[2]; methanol and THF/ACN (2:1, v/v), 25° C., at least 24 h, 4 mg/mL, listed as I-1 Form A
  chemical stability in solution: chemically stable

Source: patent US20260125374A1, “PI3K-ALPHA INHIBITORS AND METHODS OF MAKING AND USING THE SAME” (Relay Therapeutics, Inc., priority 2021, published 2026)
